Reference: PubChem BioAssay (NCI)
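GI50 marks 50% less growth. At the TGI there is no net growth.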

Experiments:
Assay in all cases: inhibition of tumour cell growth, NCI panel, 384-well format
LOX IMVI melanoma = tested on: LOX IMVI melanoma
M14 melanoma = tested on: M14 melanoma
PC-3 prostate = tested on: PC-3 prostate
U251 glioblastoma = tested on: U251 glioblastoma
A498 renal = tested on: A498 renal
MDA-MB-231 breast = tested on: MDA-MB-231 breast
HCT-116 colon = tested on: HCT-116 colon
MDA-MB-468 breast = tested on: MDA-MB-468 breast
SK-OV-3 ovarian = tested on: SK-OV-3 ovarian
HCC-2998 colon = tested on: HCC-2998 colon
SK-MEL-28 melanoma = tested on: SK-MEL-28 melanoma
UACC-62 melanoma = tested on: UACC-62 melanoma
UACC-257 melanoma = tested on: UACC-257 melanoma
NCI-H226 lung = tested on: NCI-H226 lung
NCI-H522 lung = tested on: NCI-H522 lung
NCI-H23 lung = tested on: NCI-H23 lung
SNB-75 CNS = tested on: SNB-75 CNS
SN12C renal = tested on: SN12C renal
RXF 393 renal = tested on: RXF 393 renal
EKVX NSCLC = tested on: EKVX NSCLC
HOP-92 NSCLC = tested on: HOP-92 NSCLC
HL-60(TB) leukemia = tested on: HL-60(TB) leukemia
NCI-H322M lung = tested on: NCI-H322M lung
OVCAR-8 ovarian = tested on: OVCAR-8 ovarian
SF-268 CNS = tested on: SF-268 CNS
OVCAR-3 ovarian = tested on: OVCAR-3 ovarian
SR leukemia = tested on: SR leukemia
COLO 205 colon = tested on: COLO 205 colon
HCT-15 colon = tested on: HCT-15 colon
ACHN renal = tested on: ACHN renal
MALME-3M melanoma = tested on: MALME-3M melanoma
SK-MEL-5 melanoma = tested on: SK-MEL-5 melanoma
A549 NSCLC = tested on: A549 NSCLC
MCF7 breast = tested on: MCF7 breast
KM12 colon = tested on: KM12 colon
SNB-19 CNS = tested on: SNB-19 CNS
DU-145 prostate = tested on: DU-145 prostate
RPMI-8226 leukemia = tested on: RPMI-8226 leukemia
BT-549 breast = tested on: BT-549 breast
HT29 colon = tested on: HT29 colon
MOLT-4 leukemia = tested on: MOLT-4 leukemia
NCI-H460 NSCLC = tested on: NCI-H460 NSCLC
CAKI-1 renal = tested on: CAKI-1 renal
HS 578T breast = tested on: HS 578T breast

CCn1c(-c2nonc2N)nc2c(C#CC(C)(C)O)ncc(OC[C@H]3CCCNC3)c21
GI50 (LOX IMVI melanoma): 1.05 µM
TGI (LOX IMVI melanoma): 8.42 µM
GI50 (M14 melanoma): < 0.01 µM
TGI (M14 melanoma): < 0.01 µM
GI50 (PC-3 prostate): 0.0846 µM
TGI (PC-3 prostate): 14.2 µM
GI50 (U251 glioblastoma): 1.08 µM
TGI (U251 glioblastoma): 14.4 µM
GI50 (A498 renal): < 0.01 µM
TGI (A498 renal): < 0.01 µM
GI50 (MDA-MB-231 breast): 2.62 µM
TGI (MDA-MB-231 breast): 16.7 µM
GI50 (HCT-116 colon): 1.47 µM
TGI (HCT-116 colon): 17.7 µM
GI50 (MDA-MB-468 breast): 0.099 µM
TGI (MDA-MB-468 breast): 19.6 µM
GI50 (SK-OV-3 ovarian): 0.0422 µM
TGI (SK-OV-3 ovarian): 12.7 µM
GI50 (HCC-2998 colon): < 0.01 µM
TGI (HCC-2998 colon): 0.0209 µM
GI50 (SK-MEL-28 melanoma): 4.69 µM
TGI (SK-MEL-28 melanoma): 20.4 µM
GI50 (UACC-62 melanoma): 0.22 µM
TGI (UACC-62 melanoma): 16.8 µM
GI50 (UACC-257 melanoma): 2 µM
TGI (UACC-257 melanoma): 16.7 µM
GI50 (NCI-H226 lung): 4.62 µM
TGI (NCI-H226 lung): 18.5 µM
GI50 (NCI-H522 lung): 1.25 µM
TGI (NCI-H522 lung): 4.73 µM
GI50 (NCI-H23 lung): < 0.01 µM
TGI (NCI-H23 lung): 13.6 µM
GI50 (SNB-75 CNS): 0.216 µM
TGI (SNB-75 CNS): 17.1 µM
GI50 (SN12C renal): 0.0908 µM
TGI (SN12C renal): 12.4 µM
GI50 (RXF 393 renal): < 0.01 µM
TGI (RXF 393 renal): 19.2 µM
GI50 (EKVX NSCLC): 4.79 µM
TGI (EKVX NSCLC): 26.5 µM
GI50 (HOP-92 NSCLC): < 0.01 µM
TGI (HOP-92 NSCLC): 21.7 µM
GI50 (HL-60(TB) leukemia): < 0.01 µM
TGI (HL-60(TB) leukemia): 0.101 µM
GI50 (NCI-H322M lung): 0.0268 µM
TGI (NCI-H322M lung): 18.4 µM
GI50 (OVCAR-8 ovarian): < 0.01 µM
TGI (OVCAR-8 ovarian): 17.6 µM
GI50 (SF-268 CNS): 6.19 µM
TGI (SF-268 CNS): 20.2 µM
GI50 (OVCAR-3 ovarian): 0.198 µM
TGI (OVCAR-3 ovarian): 15.2 µM
GI50 (SR leukemia): < 0.01 µM
TGI (SR leukemia): < 0.01 µM
GI50 (COLO 205 colon): 0.116 µM
TGI (COLO 205 colon): 12.1 µM
GI50 (HCT-15 colon): 0.984 µM
TGI (HCT-15 colon): 64.2 µM
GI50 (ACHN renal): < 0.01 µM
TGI (ACHN renal): 0.129 µM
GI50 (MALME-3M melanoma): 0.183 µM
TGI (MALME-3M melanoma): 17.6 µM
GI50 (SK-MEL-5 melanoma): < 0.01 µM
TGI (SK-MEL-5 melanoma): 0.19 µM
GI50 (A549 NSCLC): 4.15 µM
TGI (A549 NSCLC): 22.7 µM
GI50 (MCF7 breast): 0.0267 µM
TGI (MCF7 breast): 16.6 µM
GI50 (KM12 colon): 0.018 µM
TGI (KM12 colon): 14.4 µM
GI50 (SNB-19 CNS): 0.495 µM
TGI (SNB-19 CNS): 15.2 µM
GI50 (DU-145 prostate): 0.0938 µM
TGI (DU-145 prostate): 13.8 µM
GI50 (RPMI-8226 leukemia): < 0.01 µM
TGI (RPMI-8226 leukemia): 0.283 µM
GI50 (BT-549 breast): < 0.01 µM
TGI (BT-549 breast): 2.13 µM
GI50 (HT29 colon): 0.199 µM
TGI (HT29 colon): 16.5 µM
GI50 (MOLT-4 leukemia): < 0.01 µM
TGI (MOLT-4 leukemia): < 0.01 µM
GI50 (NCI-H460 NSCLC): 0.195 µM
TGI (NCI-H460 NSCLC): 11 µM
GI50 (CAKI-1 renal): 0.411 µM
TGI (CAKI-1 renal): 16.7 µM
GI50 (HS 578T breast): < 0.01 µM
TGI (HS 578T breast): 14.2 µM
